Measurements taken from patent publication US11000033B2, “Ketone or oxime compound, and herbicide” (NISSAN CHEMICAL CORPORATION, priority 2014, dated 2021).

How the values were obtained:
Assay type in all cases: in vivo
[1] = system: Amaranthus retroflexus; assay: Test Example 5: herbicidal effect by foliage application, plastic box (symbol N); conditions: 320 g/ha, 3 weeks after application
In short: (§1)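 Herbicide, formulated as an emulsion and diluted in water, is sprayed onto the aerial parts of 14-day seedlings. These were grown at 25° C. to 30° C. in sterilized diluvial soil; effects are graded after 3 weeks.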

[2] = system: beet; assay: Test Example 5: effect on crop by foliage application, plastic box (symbol f); conditions: 320 g/ha, 3 weeks after application
In short: (§2)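 Seeds were sown in spots in sterilized diluvial soil held in a plastic box 21 cm × 13 cm × 7 cm deep, covered with about 1.5 cm of soil, and grown in a greenhouse at 25° C. to 30° C.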

[3] = system: Echinochloa crus-galli var. crus-galli; assay: Test Example 5: herbicidal effect by foliage application, plastic box (symbol H); conditions: 320 g/ha, 3 weeks after application
In short: as §1

[4] = system: Monochoria vaginalis; assay: Test Example 1: herbicidal activity, application before weed generation in submerged conditions (symbol C); conditions: application herbicide amount 320 g/ha
In short: (§3)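 Application before weed emergence: an aqueous dilution of the emulsion formulation was poured onto the surface of 4 cm-deep floodwater on the day of sowing. Effect was judged after 3 weeks (greenhouse, 25–30 °C).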

[5] = system: Amaranthus retroflexus; assay: Test Example 4: herbicidal effect by soil treatment (symbol N); conditions: application herbicide amount 320 g/ha
In short: (§4)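 Seeds were sown in sterilized diluvial soil, covered with about 1.5 cm of soil, and the soil surface was sprayed with a water-diluted emulsion of the compound at a predetermined rate. Plants grew in a greenhouse at 25° C. to 30° C.; effects were scored visually 3 weeks after application.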

[6] = system: Scirpus juncoides; assay: Test Example 1: herbicidal activity, application before weed generation in submerged conditions (symbol B); conditions: application herbicide amount 320 g/ha
In short: as §3

[7] = system: corn; assay: Test Example 4: effect on crop by soil treatment (symbol c); conditions: application herbicide amount 320 g/ha
In short: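 Plants are raised in a greenhouse (25° C. to 30° C.) from spot-sown seed, which sits under about 1.5 cm of sterilized diluvial soil in a box shared with weed species.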

[8] = system: Echinochloa crus-galli var. crus-galli; assay: Test Example 4: herbicidal effect by soil treatment (symbol H); conditions: application herbicide amount 320 g/ha
In short: as §4

[9] = system: directly sowed rice plant; assay: Test Example 3: effect on crop by foliage application, Wagner pot (symbol b); conditions: application herbicide amount 320 g/ha, Table 24
In short: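 Greenhouse culture at 25–30 °C of seeded rice, Cyperus difformis, Leptochloa chinensis and Echinochloa crus-galli var. crus-galli, in alluvial soil held under 0.1–0.5 cm of water in a Wagner pot.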

[10] = system: Stellaria media; assay: Test Example 4: herbicidal effect by soil treatment (symbol P); conditions: application herbicide amount 320 g/ha
In short: as §4

[11] = system: rapeseed; assay: Test Example 4: effect on crop by soil treatment (symbol g); conditions: application herbicide amount 320 g/ha
In short: (§5)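 Sterilized diluvial soil, spot sowing, ~1.5 cm soil cover; greenhouse 25–30° C.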

[12] = system: rice; assay: Test Example 4: effect on crop by soil treatment (symbol b); conditions: application herbicide amount 320 g/ha
In short: as §5

[13] = system: Setaria viridis; assay: Test Example 5: herbicidal effect by foliage application, plastic box (symbol G); conditions: 320 g/ha, 3 weeks after application
In short: as §1

[14] = system: Cyperus difformis; assay: Test Example 3: herbicidal effect by foliage application, Wagner pot (symbol E); conditions: application herbicide amount 320 g/ha, Table 24
In short: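 Weeds and rice were sown in alluvial soil under 0.1–0.5 cm of standing water and grown for 14 days in a 25–30 °C greenhouse. An emulsion of the compound, diluted in water to a set dose, was sprayed evenly onto the foliage. Effect was scored against fixed criteria 3 weeks after treatment.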

[15] = system: rapeseed; assay: Test Example 5: effect on crop by foliage application, plastic box (symbol g); conditions: 320 g/ha, 3 weeks after application
In short: as §2

[16] = system: Echinochloa oryzacola Vasing.; assay: Test Example 1: herbicidal activity, application before weed generation in submerged conditions (symbol A); conditions: application herbicide amount 320 g/ha
In short: as §3

Compound | N: Amaranthus retroflexus, herbicidal effect grade [1] | f: beet, effect on crop grade [2] | H: Echinochloa crus-galli var. crus-galli, herbicidal effect grade [3] | C (Monochoria vaginalis) herbicidal effect grade [4] | N: Amaranthus retroflexus, herbicidal effect grade [5] | B (Scirpus juncoides) herbicidal effect grade [6] | c: corn, effect on crop grade [7] | H: Echinochloa crus-galli var. crus-galli, herbicidal effect grade [8] | b (directly sowed rice plant) effect on crop grade [9] | P: Stellaria media, herbicidal effect grade [10] | g: rapeseed, effect on crop grade [11] | b: directly sowed rice plant, effect on crop grade [12] | G: Setaria viridis, herbicidal effect grade [13] | E herbicidal effect grade [14] | g: rapeseed, effect on crop grade [15] | A (Echinochloa oryzacola Vasing.) herbicidal effect grade [16]
CCC(CC1CC(O)=C(c2c(C)cc(Br)cc2OC)C1=O)=NOC (mixture of isomers) [13-001] | 0 (Herbicidal ratio of 5% or lower (almost no effect)) | 0 (Herbicidal ratio of 5% or lower (almost no effect)) | 5 (Herbicidal ratio of 90% or more (almost completely withered)) | 0 (Herbicidal ratio of 5% or lower (almost no effect)) | 0 (Herbicidal ratio of 5% or lower (almost no effect)) | 2 (Herbicidal ratio of 20% or higher and lower than 40%) | 5 (Herbicidal ratio of 90% or more (almost completely withered)) | 5 (Herbicidal ratio of 90% or more (almost completely withered)) | 5 (Herbicidal ratio of 90% or more (almost completely withered)) | 0 (Herbicidal ratio of 5% or lower (almost no effect)) | 0 (Herbicidal ratio of 5% or lower (almost no effect)) | 5 (Herbicidal ratio of 90% or more (almost completely withered)) | 5 (Herbicidal ratio of 90% or more (almost completely withered)) | 4 (Herbicidal ratio of 70% or higher and lower than 90%) | 4 (Herbicidal ratio of 70% or higher and lower than 90%) | 5 (Herbicidal ratio of 90% or more (almost completely withered))
CON=C(CC1CC(O)=C(c2c(C)cc(C)cc2OC)C1=O)C1CC1 (mixture of isomers) [13-002] | 0 (Herbicidal ratio of 5% or lower (almost no effect)) | 3 (Herbicidal ratio of 40% or higher and lower than 70%) | 5 (Herbicidal ratio of 90% or more (almost completely withered)) | 0 (Herbicidal ratio of 5% or lower (almost no effect)) | 0 (Herbicidal ratio of 5% or lower (almost no effect)) | 4 (Herbicidal ratio of 70% or higher and lower than 90%) | 5 (Herbicidal ratio of 90% or more (almost completely withered)) | 5 (Herbicidal ratio of 90% or more (almost completely withered)) | 5 (Herbicidal ratio of 90% or more (almost completely withered)) | 0 (Herbicidal ratio of 5% or lower (almost no effect)) | 1 (Herbicidal ratio of 5% or higher and lower than 20%) | 5 (Herbicidal ratio of 90% or more (almost completely withered)) | 5 (Herbicidal ratio of 90% or more (almost completely withered)) | 5 (Herbicidal ratio of 90% or more (almost completely withered)) | 4 (Herbicidal ratio of 70% or higher and lower than 90%) | 5 (Herbicidal ratio of 90% or more (almost completely withered))
CCC(CC1CC(O)=C(c2c(C)cc(C)cc2OC)C1=O)=NOC (mixture of isomers) [13-003] | 0 (Herbicidal ratio of 5% or lower (almost no effect)) | 0 (Herbicidal ratio of 5% or lower (almost no effect)) | 5 (Herbicidal ratio of 90% or more (almost completely withered)) | 0 (Herbicidal ratio of 5% or lower (almost no effect)) | 0 (Herbicidal ratio of 5% or lower (almost no effect)) | 5 (Herbicidal ratio of 90% or more (almost completely withered)) | 5 (Herbicidal ratio of 90% or more (almost completely withered)) | 5 (Herbicidal ratio of 90% or more (almost completely withered)) | 5 (Herbicidal ratio of 90% or more (almost completely withered)) | 0 (Herbicidal ratio of 5% or lower (almost no effect)) | 3 (Herbicidal ratio of 40% or higher and lower than 70%) | 5 (Herbicidal ratio of 90% or more (almost completely withered)) | 5 (Herbicidal ratio of 90% or more (almost completely withered)) | 5 (Herbicidal ratio of 90% or more (almost completely withered)) | 4 (Herbicidal ratio of 70% or higher and lower than 90%) | 5 (Herbicidal ratio of 90% or more (almost completely withered))
CCC(CC1CC(O)=C(c2c(C)cc(-c3ccccc3)cc2OC)C1=O)=NOC (mixture of isomers) [13-004] | 0 (Herbicidal ratio of 5% or lower (almost no effect)) | 0 (Herbicidal ratio of 5% or lower (almost no effect)) | 5 (Herbicidal ratio of 90% or more (almost completely withered)) | 5 (Herbicidal ratio of 90% or more (almost completely withered)) | 4 (Herbicidal ratio of 70% or higher and lower than 90%) | 5 (Herbicidal ratio of 90% or more (almost completely withered)) | 5 (Herbicidal ratio of 90% or more (almost completely withered)) | 5 (Herbicidal ratio of 90% or more (almost completely withered)) | 5 (Herbicidal ratio of 90% or more (almost completely withered)) | 1 (Herbicidal ratio of 5% or higher and lower than 20%) | 4 (Herbicidal ratio of 70% or higher and lower than 90%) | 5 (Herbicidal ratio of 90% or more (almost completely withered)) | 5 (Herbicidal ratio of 90% or more (almost completely withered)) | 5 (Herbicidal ratio of 90% or more (almost completely withered)) | 4 (Herbicidal ratio of 70% or higher and lower than 90%) | 5 (Herbicidal ratio of 90% or more (almost completely withered))
CON=C(CC1CC(OC(=O)N2CCOCC2)=C(c2c(C)cc(C)cc2OC)C1=O)C1CC1 (mixture of isomers) [13-005] | 0 (Herbicidal ratio of 5% or lower (almost no effect)) | 0 (Herbicidal ratio of 5% or lower (almost no effect)) | 5 (Herbicidal ratio of 90% or more (almost completely withered)) | 2 (Herbicidal ratio of 20% or higher and lower than 40%) | 0 (Herbicidal ratio of 5% or lower (almost no effect)) | 0 (Herbicidal ratio of 5% or lower (almost no effect)) | 0 (Herbicidal ratio of 5% or lower (almost no effect)) | 1 (Herbicidal ratio of 5% or higher and lower than 20%) | 5 (Herbicidal ratio of 90% or more (almost completely withered)) | 0 (Herbicidal ratio of 5% or lower (almost no effect)) | 0 (Herbicidal ratio of 5% or lower (almost no effect)) | 1 (Herbicidal ratio of 5% or higher and lower than 20%) | 5 (Herbicidal ratio of 90% or more (almost completely withered)) | 5 (Herbicidal ratio of 90% or more (almost completely withered)) | 3 (Herbicidal ratio of 40% or higher and lower than 70%) | 5 (Herbicidal ratio of 90% or more (almost completely withered))
